Measurements: patent US20150225377A1, “VEGFR3 INHIBITORS” (CANCER THERAPEUTICS CRC PTY LIMITED, priority 2012, published 2015)

Experiments:
[1] = target: T1, VEGFR3 cytoplasmic domain (Homo sapiens, UniProt P35916); assay: VEGFR3 biochemical assay (AlphaScreen); settings: GST-VEGFR3 cytoplasmic domain, 500 μM ATP (modified form: His-fusion, 1 μM ATP)
T1 construct: VEGFR3 cytoplasmic domain (amino acids 798-1298) was purchased as N-terminal GST-fusion protein; GST (N); purchased
Procedure: Compounds of the invention may be tested for in vitro activity in the following assay: A biotin labelled peptide is used as substrate (amino acid sequence: Biotin-[…]NH2). VEGFR3 cytoplasmic domain (amino acids 798-1298) was purchased as N-terminal GST-fusion protein (“the enzyme”). The 15 μL assay reactions are run in Greiner brand white 384-well low volume plates. All reactions contained 10 mM HEPES pH 7.4, 10 mM MgCl2, 0.01% (v/v) Tween-20, 50 μM Na3VO4, 0.01% (w/v) albumin from chicken egg white, 1 mM Dithiothreitol, 111 nM peptide substrate, 500 μM ATP, and 3.8 ng/reaction enzyme, with the enzyme being omitted from negative control reactions. Compounds were added in a volume of […] from dilution series prepared in DMSO, positive and negative control reactions receiving the same volume DMSO without compound. The plates were sealed with adhesive seals and incubated for 90 minutes at 30 degree Celsius. The reactions were stopped with the detection reagents added at the same time as follows: Product formation was quantified as amplified luminescence between PerkinElmer AlphaScreen™ beads, using Streptavidin-coated donor and anti-phosphotyrosine (P-Tyr-100) acceptor beads. To each reaction, 5 μL containing 10 mM HEPES pH 7.4, 25 mM NaCl, 100 mM EDTA, 0.01% (v/v) Tween-20, and 6.25 μg/mL of each bead type were added. Plates were incubated for 6 hours before being read on a PerkinElmer EnVision™ plate reader in HTS Alphascreen™ mode. IC50 values were obtained by calculating percent inhibition (% I) for each reaction relative to controls on the same plate (% I=(I-CN)/(CP-CN) where CN/CP are the averages of the negative/positive reactions, respectively), then fitting the % I data vs. compound concentration [I] to % I=(A+((B−A)/(1+((C/[I])̂D)))) where A is the lower asymptote, B is the upper asymptote, C is the IC50 value, and D is the slope factor.
The above assay was also run in a modified form in some cases (indicated below with *). In these cases, VEGFR3 cytoplasmic domain (amino acids 818-1177, lacking 949-1002 of UniProt accession number P35916) was expressed and purified as N-terminal Hexa-His-fusion protein (“the enzyme”), rather than using the N-terminal GST-fusion protein. The assay conditions were the same as above but with 1 μM ATP and 8 ng/reaction of the enzyme.

P397Y-FAK = target: T2, P397Y-FAK (Homo sapiens, UniProt Q05397); assay: P397Y-FAK inhibition MSD platform cellular biomarker assay; assay type: cell-based; settings: MDA-231-LNA cells, 1 hour compound
T2 construct: endogenous in cells; host or cells: MDA-231-LNA
T2 sequence (Q05397 2-1052 limits assumed, stated change not applied): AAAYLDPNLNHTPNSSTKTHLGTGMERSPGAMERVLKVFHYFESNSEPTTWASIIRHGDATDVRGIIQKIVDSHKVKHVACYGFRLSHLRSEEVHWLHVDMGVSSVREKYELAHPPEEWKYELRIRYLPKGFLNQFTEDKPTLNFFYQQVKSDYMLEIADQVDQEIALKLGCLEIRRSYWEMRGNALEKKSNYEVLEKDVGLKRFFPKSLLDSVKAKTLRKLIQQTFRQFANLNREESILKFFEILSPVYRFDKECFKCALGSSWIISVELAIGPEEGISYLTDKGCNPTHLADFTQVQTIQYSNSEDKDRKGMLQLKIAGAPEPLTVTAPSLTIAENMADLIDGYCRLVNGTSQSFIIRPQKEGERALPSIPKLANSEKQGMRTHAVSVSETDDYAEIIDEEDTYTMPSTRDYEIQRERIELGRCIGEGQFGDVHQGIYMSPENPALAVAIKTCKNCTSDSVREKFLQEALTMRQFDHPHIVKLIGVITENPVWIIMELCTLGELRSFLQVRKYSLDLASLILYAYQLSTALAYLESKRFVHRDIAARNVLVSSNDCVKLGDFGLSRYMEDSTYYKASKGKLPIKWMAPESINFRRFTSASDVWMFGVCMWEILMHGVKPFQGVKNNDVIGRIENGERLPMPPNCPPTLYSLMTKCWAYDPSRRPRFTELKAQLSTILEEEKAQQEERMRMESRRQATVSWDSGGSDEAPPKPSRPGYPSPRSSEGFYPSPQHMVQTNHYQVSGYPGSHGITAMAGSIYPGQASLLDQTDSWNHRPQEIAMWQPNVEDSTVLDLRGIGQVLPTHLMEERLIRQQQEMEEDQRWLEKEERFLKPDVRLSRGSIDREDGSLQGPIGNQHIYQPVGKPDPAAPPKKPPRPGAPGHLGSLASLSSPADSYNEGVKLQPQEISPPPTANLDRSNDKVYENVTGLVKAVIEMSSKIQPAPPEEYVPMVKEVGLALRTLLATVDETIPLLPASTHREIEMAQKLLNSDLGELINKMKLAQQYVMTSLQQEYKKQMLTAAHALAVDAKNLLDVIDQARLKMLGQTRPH
Procedure: 96-well plates (cat#MA6000, Meso Scale Discovery) are coated with 30 μL/well of mouse monoclonal FAK antibody [63D5] (cat#ab72140, Abcam) pre-diluted in PBS to a concentration of 1 mg/mL. The plates are sealed with adhesive film and incubated for 16 hours at 4° C. The antibody is then flicked out of the plates and 150 μL of 3% [w/v] Blocker A (cat#R93AA-1, Meso Scale Discovery) is added. The plates are resealed with adhesive film and incubated at room temperature on a shaker set at medium speed for 2 hours. The plates are then washed three times with a solution containing 50 mM Tris-HCl pH 7.5, 0.15 M NaCl and 0.02% Tween-20, before cell lysate addition described below.
Cells are split 1:2 into T150 cell culture flasks 2 days prior to compound treatment. On the day prior to compound treatment, 200 μL media containing 20,000 cells is seeded into all wells of white, clear-bottom, TC treated, pclear, 96-well microtitre plates (cat#655098, Greiner Bio-One), and the plates are incubated at 37° C. and 5% CO2 for […]. 1 pUwell of compound is then added from dilution series prepared in DMSO. Negative control wells receive the same volume of DMSO without compounds, and positive control wells receive 2 μM of a control compound in the same volume of DMSO. Cells are treated for 1 hour at 37° C. and 5% CO2. The media/compounds are then flicked off and 55 pUwell of ice-cold complete lysis buffer is added. Complete lysis buffer is prepared by adding 1 tablet PhosSTOP complete phosphatase inhibitor (cat#04906837001, Roche) and 1 tablet Complete, Mini, EDTA-free, protease inhibitor (cat#04693159001, Roche) per 10 mL of incomplete lysis buffer (150 mM NaCl, 20 mM Tris-HCl pH 7.5, 1 mM EDTA, 1 mM EGTA, 1% Triton-X 100). Plates are incubated on ice for 30 minutes, with 30 seconds high speed plate shaking every 5 minutes. 40 μL/well of cell lysate is transferred to the coated, blocked and washed 96-well microtitre plates described above. The 96-well plates are sealed with adhesive film and incubated for 16 hours at 4° C. The plates are then washed three times with a solution containing 50 mM Tris-HCl pH 7.5, 0.15 M NaCl and 0.02% Tween-20 and tapped dry. 25 μL/well of detection solution (1% [w/v] Blocker A (cat#R93AA-1, Meso Scale Discovery) in 50 mM Tris-HCl pH 7.5, 0.15 M NaCl and 0.02% Tween-20, with 1:600 rabbit polyclonal FAK phospho Y397 antibody (cat#ab39967, Abcam), 1:1000 anti-rabbit sulfo-tag antibody (cat#R32AB-1 Meso Scale Discovery) and 1:40 reconstituted Blocker D-M (cat#D609-0100, Rockland Immunochemicals for Research)) is added, and the plates resealed with adhesive film and incubated for 1 hour at room temperature on a plate shaker set to medium speed. Plates are then washed three times with a solution containing 50 mM Tris-HCl pH 7.5, 0.15 M NaCl and 0.02% Tween-20 and tapped dry. 150 μL/well of Read Buffer T+Surfactant (cat#R92TC-1, Meso Scale Discovery) is then added, and pFAK-397 levels quantified using a Meso Scale Discovery SECTOR Imager 6000 instrument.

T1 sequence (P35916 798-1298 isoform P35916-1): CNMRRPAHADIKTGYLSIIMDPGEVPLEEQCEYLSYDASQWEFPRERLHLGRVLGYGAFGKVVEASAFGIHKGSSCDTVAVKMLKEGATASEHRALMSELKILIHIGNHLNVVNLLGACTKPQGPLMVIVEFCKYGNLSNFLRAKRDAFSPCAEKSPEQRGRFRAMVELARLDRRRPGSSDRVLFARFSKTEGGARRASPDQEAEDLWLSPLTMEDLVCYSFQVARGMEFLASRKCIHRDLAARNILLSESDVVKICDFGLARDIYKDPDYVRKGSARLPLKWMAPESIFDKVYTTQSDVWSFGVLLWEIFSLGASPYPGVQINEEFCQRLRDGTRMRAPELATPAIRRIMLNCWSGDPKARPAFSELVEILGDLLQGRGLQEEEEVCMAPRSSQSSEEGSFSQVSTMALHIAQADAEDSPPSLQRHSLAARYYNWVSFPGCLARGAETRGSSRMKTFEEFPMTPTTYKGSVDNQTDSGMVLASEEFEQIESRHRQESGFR

NC(=O)Cc1c(CCc2nc(Nc3ccc(C4CCNCC4)cc3)ncc2C(F)(F)F)cccc1C(F)(F)F [Compound 22, 2-(2-(2-(2-((4-(piperidin-4-yl)phenyl)amino)-5-(trifluoromethyl)pyrimidin-4-yl)ethyl)-6-(trifluoromethyl)phenyl)acetamide]
IC50 [1]: 101 nM | IC50 (P397Y-FAK): 944 nM
